Measurements from patent EP0050407A1, “3,5-Disubstituted-1,2,4-triazole compounds, processes for their preparation and pharmaceutical compositions containing them” (GLAXO GROUP LIMITED, priority 1980, dated 1982).
Structures can show the parent of a compound that is named as a salt.

Assays:
[1] = test system: secretion of gastric acid; assay: perfused rat stomach test (inhibition of gastric acid secretion stimulated via histamine receptors); assay type: in vivo
From the text: Certain novel heterocyclic derivatives have now been found which have potent activity as H2-antagonists.

[2] = test system: rats; assay: toxicity in rats; assay type: in vivo
[3] = administered intravenously to rats at doses of at least twice their ED50 values

Row | Compound | ED50 [1] | toxic effects ([2]; administered orally to rats at a dose of 400 mg/kg) | toxic effects [2, 3]
1 | OCCc1n[nH]c(CCCCOc2cccc(CN3CCCCC3)c2)n1 [2(a), 5-[4-[3-(1-Piperidinylmethyl)phenoxy]butyl]-1H-1,2,4-triazole-3-(2-ethanol) maleate (1:2)] | < 0.63 mg/kg | – | –
2 | CC(O)c1n[nH]c(CCCCOc2cccc(CN3CCCCC3)c2)n1 (stereo not shown) [2(e), 5-[4-[3-(1-piperidinylmethyl)phenoxy]butyl]-1H-1,2,4-triazole-3-(1-ethanol)oxalate (1:2)] | < 0.63 mg/kg | – | –
3 | CC(=O)OCc1n[nH]c(CCCCOc2cccc(CN3CCCCC3)c2)n1 [Example 3, 5-[4-[3-(1-Piperidinylmethyl)phenoxy]butyl]-1H-1,2,4-triazole-3-methanol acetate(ester)fumarate] | < 0.63 mg/kg | – | –
4 | OCc1n[nH]c(CCCCOc2cccc(CN3CCCCC3)c2)n1 [Example 6] | < 0.63 mg/kg | no toxic effects | –
5 | CS(=O)(=O)Cc1n[nH]c(CCCCOc2cccc(CN3CCCCC3)c2)n1 [Example 7, 3-(Methylsulphonyl)methyl-5-[4-[3-(1-piperidinylmethyl)phenoxy]butyl]-lH-l,2,4-triazole] | < 0.63 mg/kg | – | no toxic effects
6 | O=Cc1n[nH]c(CCCCOc2cccc(CN3CCCCC3)c2)n1 [Example 8, 5-[4-[3-(1-Piperidinylmethyl)phenoxy]butyl]-1H-1,2,4-triazole-3-carboxaldehyde hydrate] | < 0.63 mg/kg | – | –
7 | ON=Cc1n[nH]c(CCCCOc2cccc(CN3CCCCC3)c2)n1 [Example 9, 5-[4-[3-(1-Piperidinylmethyl)phenoxy]butyl]-1H-1,2,4,- triazole-3-carboxaldehyde oxime] | < 0.63 mg/kg | – | no toxic effects
